Results on 1 molecule are retold here after US12358902B2, “5-(2,5-bis(4-chloro-2-isopropylphenyl)thiophen-3-yl)-1H-tetrazole for the topical treatment of bacterial infections” (DENOVAMED INC., priority 2017, dated 2025).

The data set in a line: dermal pharmacokinetics on full thickness human cadaver skin (Franz cells). In kind it is in vitro ADME. As to conditions: 2% w/w in GLAXAL BASE. An excerpt:
Full thickness human skin was taken from the torso of a post-mortem human donor and stores at −80 degrees Celsius. On the day of the study, skin pieces were thawed for at least […] at room temperature in saline, then divided into individual pieces of approximately 2 cm length×2 cm width from which seven pieces of full thickness skin was selected. Approximately ⅔ of the width of the hypodermis layer was trimmed in order to mount the selected pieces into Franz cells. Receiver buffer was prepared (Krebs-Ringer bicarbonate buffer containing 10 mM HEPES, 15 mM sodium bicarbonate, and 1.2 mM calcium chloride; adjusted to pH 7.4 and fortified with 0.1% sodium azide and 1% bovine serum albumin). Each piece was equilibrated for 30 min with 12 mL of receiver buffer at 32 degrees Celsius by a water-jacket/stirring module running at 600 rpm. Transepithelial water loss was read for each piece after 30 mins using a vapometer. Exposed surface area of the piece was 1.77 square cm.
Approximately 300 ul of 5-(2,5-bis(4-chloro-2-isopropylphenyl)thiophen-3-yl)-1H-tetrazole formulated in 2% w/w GLAXAL BASE™ (Emollient Cream) was applied directly through syringe on top of each piece. Receiver samples were taken from the receiver compartment of each Franz cell at 3, 6, 12, 18, and 24 hours and replaced with an equal volume of fresh, warm buffer to maintain sink conditions. At the end of 24 hours, the bulk amount of formulation remaining on each piece of skin was wiped using cotton tips, stored together in a dry vial for analysis. Epidermis and dermis were then separated gently using forceps after a brief heat treatment at 60 degrees Celsius for no longer than 2 minutes. Each layer was then blotted dry, weighted and stored in separate glass vials. All samples were stored at −80 degrees Celsius until analysis by LC/MS-MS.
The cumulative concentrations of 5-(2,5-bis(4-chloro-2-isopropylphenyl)thiophen-3-yl)-1H-tetrazole that permeated at each time point were calculated by the sum of the measured concentration at that time point plus 1/12 of the measured concentrations at the previous time points (since 1 mL out of the 12 mL total receiver volume is withdrawn and replaced each time). The flux values over the course of the 24 hour permeation period were calculated from the slope of the linear portion of the curve. Flux was represented by the equation Flux=d[(Cr-T×Vr)/dt/A where Cr-T is the cumulative concentration at each time point (ng/mL); Vr is 12 mL; t is duration in hours; and A is the surface area of 1.77 square cm.

[1] abbreviates: end of 24 hour permeation, LC-MS/MS.

`CC(C)c1cc(Cl)ccc1-c1cc(-c2nnn[nH]2)c(-c2ccc(Cl)cc2C(C)C)s1` [Test Article, 5-(2,5-bis(4-chloro-2-isopropylphenyl)thiophen-3-yl)-1H-tetrazole]: the “Flux from top through to bottom of skin” value (24 hour permeation period) is recorded as “less than 0.141 ng/hr/cm^2”. For the same molecule, for the setting “end of 24 hour permeation period, lower limit of detection 0.5 ng/mL”, the “compound in the receiver samples” value was “no detectable”. Under setting [1], this molecule had a level in dermis of 0.821±0.469 ng per mg tissue, a level in epidermis of 163±58.0 ng per mg tissue and a level in hypodermis of 1.86±1.04 ng per mg tissue.
